SMILES strings stand for the structures. Bounds are passed on as bounds.

The record followed here is patent publication US5061720A, “Substituted-4-thiazolidinone derivatives” (A. H. Robins Company, Inc., priority 1989, dated 1991).

The test system of one experiment is guinea pig skin. In words: UV-Erythema in Guinea Pigs. In kind it is in vivo. Details: key: +: active; -: inactive. Particulars: topical, 50 μL of cream with 1.0 mg test article per 1 g, immediately after UV exposure; active = composite score significantly lower than control, Dunnett's t-test p≤0.05. On the procedure: I. Preparation of Formulation (cream)
All drugs tested were prepared by thoroughly incorporating 1.0 mg of the test article into 1 g of a pH 7.0 cream vehicle of the following composition.
methyl glucose sesquistearate 1.6%
methyl gluceth-20 sesquistearate 2.4%
emulsifying wax, N.F. 5.0%
mineral oil (heavy), U.S.P. 1.0%
white petrolatum, U.S.P. 5.0%
stearic acid, U.S.P. 2.5%
sodium benzoate, N.F. 0.1%
magnesium aluminum silicate 1.5%
deionized water, pH 7.0 64.8%
The preparations were packed into 1-cc plastic syringes.
II. Pharmacological Assay
The backs of female, English short hair guinea pigs (250-500 g) were shaved and depilated with Nair®. Control and treated groups each consisted of 5 animals, and selection of the animals and the control and treatment groups was achieved by random procedures. A rubber sheet with three one-half inch holes spaced one-half inch apart was draped over backs of the guinea pigs. The guinea pigs were then exposed to ultraviolet (UV) light (Hanovia Model 10, ~650-800 μW/cm^2) for 15 seconds by holding the animals against the light source. Fifty μL of the test drug or reference drug (indomethacin or bromfenac) preparation were immediately rubbed onto the skin, either on the area exposed to UV light or to an area adjacent to the UV light exposed skin. The degree of erythema for each exposed area was scored at various times following exposure according to the following scale:
1=slight redness with faint outline
2=moderate to marked redness with distinct outline
The score was totaled for each guinea pig (maximum score is 6). The Dunnett's t-test was used to determine significant (p≤0.05) differences from the control (placebo treated) group.
Take `CCCC[C@@H]1S[C@H](c2cccc(Oc3ccccc3)c2)N(CCCCCC(=O)OCC)C1=O` (relative stereo) [Example 51]: the “U.V. erythema (+ = active, - = inactive)” value is reported as “-”.
With `CCCC[C@@H]1S[C@@H](c2cccc(Oc3ccccc3)c2)NC1=O` (relative stereo) [Example 83, 5-Butyl-2-(3-phenoxyphenyl)-4-thiazolidinone], the “U.V. erythema (+ = active, - = inactive)” value was “-”.
Same read-out and setting: in the case of `CCCCC1SC(c2cccc(Oc3ccccc3)c2)N(CCCCc2ccccc2)C1=O` (centres unmarked) [Example 1, 5-Butyl-2-(3-phenoxyphenyl)-3-(4-phenylbutyl)-4-thiazolidinone] it was “+”; in that of `CC1SC(c2cccc(Oc3ccccc3)c2)N(CCCCc2ccccc2)C1=O` (centres unmarked) [Example 7, 5-Methyl-2-(3-phenoxyphenyl)-3-(4-phenylbutyl)-4-thiazolidinone], “+”.
Still for that read-out and setting: the value for `CCCCC1SC(c2cccc(C(=O)c3ccccc3)c2)N(CCCCc2ccccc2)C1=O` (centres unmarked) [Example 8, 2-(3-Benzoylphenyl)-5-butyl-3-(4-phenylbutyl)-4-thiazolidinone] was “+”; that for `CCCCC1SC(c2cccc(Oc3ccccc3)c2)N(CCc2ccccc2)C1=O` (centres unmarked) [Example 17, 5-Butyl-2-(3-phenoxyphenyl)-3-(2-phenylethyl)-4-thiazolidinone] was “-”.
Take `CCCCC1SC(c2cccc(Oc3ccccc3)c2)N(CCCCC(=O)O)C1=O` (centres unmarked) [Example 45, 5-Butyl-4-oxo-2-(3-phenoxyphenyl)-3-thiazolidinepentanoic acid]: the “U.V. erythema (+ = active, - = inactive)” value is “+”.

The next experiment deals with T1, 5-lipoxygenase (Homo sapiens, UniProt P09917).
T1 construct: Polymorphonuclear leukocytes were obtained from whole human blood; endogenous in cells; host or cells: human polymorphonuclear leukocytes from whole blood, stimulated with A23187
T1 sequence (P09917 1-674): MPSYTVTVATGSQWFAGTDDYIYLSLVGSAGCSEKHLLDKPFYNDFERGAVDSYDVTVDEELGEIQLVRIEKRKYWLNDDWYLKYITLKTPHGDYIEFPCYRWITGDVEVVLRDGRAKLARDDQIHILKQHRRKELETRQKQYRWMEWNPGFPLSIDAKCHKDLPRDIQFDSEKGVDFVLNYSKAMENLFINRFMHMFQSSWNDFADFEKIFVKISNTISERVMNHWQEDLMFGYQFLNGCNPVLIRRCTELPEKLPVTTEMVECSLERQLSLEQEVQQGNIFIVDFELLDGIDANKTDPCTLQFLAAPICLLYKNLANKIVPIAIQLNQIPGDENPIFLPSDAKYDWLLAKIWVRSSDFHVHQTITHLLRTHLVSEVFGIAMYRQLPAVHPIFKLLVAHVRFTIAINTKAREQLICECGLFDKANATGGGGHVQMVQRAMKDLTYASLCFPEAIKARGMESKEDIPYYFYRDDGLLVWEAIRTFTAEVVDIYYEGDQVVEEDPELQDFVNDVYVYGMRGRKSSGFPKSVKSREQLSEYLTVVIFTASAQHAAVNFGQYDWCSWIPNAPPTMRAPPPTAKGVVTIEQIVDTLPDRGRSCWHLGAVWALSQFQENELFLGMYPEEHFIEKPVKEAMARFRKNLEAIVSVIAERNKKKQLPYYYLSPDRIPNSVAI
In words: 5-Lipoxygenase Assay (production of 5-HETE from arachidonic acid in polymorphonuclear leukocytes stimulated by A23187). In kind it is cell-based. Conditions: inhibition of production of 5-HETE, human PMN cells, calcium ionophore A23187, 37° C. How it is done: The production of 5-HETE from arachidonic acid in human polymorphonuclear leukocytes stimulated by the calcium ionophore A23187 (Calbiochemicals) was measured by reverse phase high pressure liquid chromatography. This procedure is a modification of the procedure of Sun and McGuire, PROSTAGLANDINS, 26, 211-221 (1983). Addition of substances to the test system that inhibit 5-lipoxygenases cause a decrease in the production of 5-HETE and is thus determined in comparison to reference and control articles also added to the reaction system.
Polymorphonuclear leukocytes were obtained from whole human blood by the procedure of Skoog and Beck, BLOOD, 11, 436-454 (1956). […] The tube is incubated for an additional 10 min at 37° C. and the incubations terminated by addition of 1.5 mL of acetone and cooling to 0° C. 13-Hydroxyoctadecatrienoic acid (13-HODT) (5 μL of 0.2 mM methanolic solution) is added for an internal reference standard. The tube is stored at -20° C. under argon for 4-18 hr. Centrifugation at 1000×g for 10 min causes protein precipitate to form a pellet. The acetone layer is evaporated under a stream of nitrogen and the resultant lipid residue containing the arachidonic acid metabolites and 13-HODT is dissolved in 0.5 mL of methanol and stored at -20° C. until analyzed by high-pressure liquid chromatography (HPLC).
For analysis, a 150-μL aliquot of the methanol solution is evaporated under a stream of argon. The residue is reconstituted with 100 μL of a 1:1 methanol-water mixture and sonified for 15-20 seconds and the mixture analyzed by HPLC (C18 reversed phase Econophere column, methanol:water:acetic acid 79:25:0.2 v/v/v used for elution). Test, reference, and control articles are evaluated in duplicate. The inhibition is reported as that concentration which will inhibit by 50% the production of 5-HETE.
What is called IC50 is the concentration at which inhibition is half-maximal. In the case of `CCCC[C@@H]1S[C@H](c2cccc(Oc3ccccc3)c2)N(CCCCCC(=O)OCC)C1=O` (relative stereo) [Example 51], the IC50 is roughly 15 µM.
For `CCCC[C@@H]1S[C@@H](c2cccc(Oc3ccccc3)c2)NC1=O` (relative stereo) [Example 83, 5-Butyl-2-(3-phenoxyphenyl)-4-thiazolidinone], the IC50 was less than 10 µM.
On the same count and under the same terms, in the case of `CCCCC1SC(c2cccc(Oc3ccccc3)c2)N(CCCCc2ccccc2)C1=O` (centres unmarked) [Example 1, 5-Butyl-2-(3-phenoxyphenyl)-3-(4-phenylbutyl)-4-thiazolidinone] it was greater than 100 µM.
Still for that read-out and setting: in the case of `CC1SC(c2cccc(Oc3ccccc3)c2)N(CCCCc2ccccc2)C1=O` (centres unmarked) [Example 7, 5-Methyl-2-(3-phenoxyphenyl)-3-(4-phenylbutyl)-4-thiazolidinone] it was less than 20 µM.
Same read-out and setting: in the case of `CCCCC1SC(c2cccc(C(=O)c3ccccc3)c2)N(CCCCc2ccccc2)C1=O` (centres unmarked) [Example 8, 2-(3-Benzoylphenyl)-5-butyl-3-(4-phenylbutyl)-4-thiazolidinone] it was roughly 100 µM; in that of `CCCCC1SC(c2cccc(Oc3ccccc3)c2)N(CCc2ccccc2)C1=O` (centres unmarked) [Example 17, 5-Butyl-2-(3-phenoxyphenyl)-3-(2-phenylethyl)-4-thiazolidinone], 10 µM; in that of `CCCCC1SC(c2cccc(Oc3ccccc3)c2)N(CCCCC(=O)O)C1=O` (centres unmarked) [Example 45, 5-Butyl-4-oxo-2-(3-phenoxyphenyl)-3-thiazolidinepentanoic acid], roughly 15 µM.
